What was measured:
[1] = molecular target: T1, MAT2A homodimer (Homo sapiens, UniProt P31153); experiment: MAT2A biochemical assay (phosphate release, PiColorLock Gold); settings: recombinant MAT2A homodimer, 60 min pre-incubation, 25° C.; read-out: Enzyme Inhibition
T1 construct: inferred from Ni sepharose purification and imidazole elution; made in house; host or cells: SF9 insect cells, recombinant baculovirus (Bac to Bac, pFASTBAC1)
Procedure: Mat2A protein was expressed by recombinant baculovirus in SF9 infected cells using the Bac to Bac system cloned into the pFASTBAC1 vector (Invitrogen, Carlsbad, CA). Recombinant MAT2A was isolated from the cell lysate of 150 g of infected cells using HP Ni sepharose column chromatography. Recombinant MAT2A homodimer was eluted with 250 and 500 mM imidazole, and fractions containing MAT2A were identified by sodium dodecyl sulfate polyacrylamide gel electrophoresis and pooled.
For determination of the inhibitory potency of compounds against the MAT2A homodimer, protein was diluted to 4 μg/mL in assay buffer (50 mM Tris, pH 8.0, 50 mM KCl, 15 mM MgCl2, 0.3 mM EDTA, 0.005% [w/v] bovine serum albumin [BSA]). Test compound was prepared in 100% dimethyl sulfoxide (DMSO) at 50× the desired final concentration. A 1 μL volume of compound dilution was added to 40 μL of enzyme dilution and the mixture was allowed to equilibrate for 60 minutes at 25° C. The enzymatic assay was initiated by the addition of 10 μL of substrate mix (500 μM ATP, pH 7.0, 400 μM L-methionine in 1× assay buffer), and the mixture was incubated for a further 60 minutes at 25° C. The reaction was halted and the liberated phosphate released by the enzyme in stoichiometric amounts by the production of S-adenosyl methionine (SAM) was measured using the PiColorLock Gold kit (Innova Biosciences, UK). Absolute product amounts were determined by comparison to a standard curve of potassium phosphate buffer, pH 8.0.

[2] = system: MAT2A activity (SAM) in HCT116 cells with deleted MTAP gene; experiment: Cellular assay of target engagement (SAM) by LC-MS/MS; format: cell-based; settings: Homo sapiens, HCT-116; HCT116 MTAP −/−, 72 hrs; read-out: Cell 72 h SAM Inhibition (MTAP −/−)
Procedure: Measurement of MAT2A activity in cells was made by direct quantitation of the abundance of the product of its enzymatic activity, SAM. Cancer cells were treated with candidate MAT2A inhibitors for a suitable incubation period, and the cells were then lysed using a reagent which quenched any further enzyme activity. Soluble metabolites including SAM were collected and SAM itself was directly measured from the lysate using quantitative LC-MS/MS.
A typical assay was performed using an HCT116 human colon carcinoma cell line which was genetically engineered to delete the MTAP gene (commercially available from Horizon Discovery). This cell line was utilized because it was determined that loss of the MTAP gene predicts sensitivity to MAT2A inhibitors. Cells were plated in 96-well dishes at appropriate cell density. Following 24 hours, cells were then treated with the candidate MAT2A inhibitor. Prior to addition to cells, the compound was first serially diluted in 100% DMSO, typically as a 3-fold serial dilution starting at 500× top dose with 10 dose points including DMSO only control. Compound was then transferred to a working stock plate in cell culture media by adding 5 μL of compound in DMSO to 495 μL of cell culture media. This working stock was then added to cells via a further 5-fold dilution, by adding 25 μL of working stock to 100 μL of cells in culture media. Following compound addition, cells were incubated at 37° C./5% CO2 for 72 hrs.
To quantitate SAM levels following compound treatment, cells were gently washed once in ammonium carbonate buffer (75 mM at pH 7.4), placed on dry ice, and lysed with metabolite extraction buffer (80% cold methanol and 20% water (v/v) with acetic acid at 1M final concentration with 200 ng/mL deuterated d3-SAM as internal control). Following centrifugation at 4° C. at 3,200 rpm for 30 minutes, the supernatant was collected and stored at −80° C. until analysis by Liquid Chromatography with tandem Mass Spectrometry (LC-MS/MS). LC-MS/MS analysis was performed using an API6500 Mass Spectrometer (Sciex, Framingham, MA, USA) operating in positive ion spray mode and equipped with a Waters UPLC Acquity (Waters, Milford, MA, USA) BEH Amide column. Multiple Reaction Monitoring data was acquired for SAM and the d3-SAM standard, using a mass transition pair at m/z 399.2→250.1 and 402.2→250.1, respectively. In a typical LC-MS/MS analysis, the initial flow rate was 0.5 ml/min of 25% mobile phase A (acetonitrile and water at 5:95 (v/v) with 1% formic acid and 10 mM ammonium acetate) and 75% mobile phase B (acetonitrile and water at 95:5 (v/v) with 1% formic acid and 10 mM ammonium acetate), 0.2-0.5 minutes with 75%-35% mobile phase B, 25%-65% mobile phase A, at 0.5 min 65% mobile phase A and 35% mobile phase B, 1.0-1.1 minutes with 35%-75% mobile phase B, 65%-25% mobile phase A, at 1.1 min 25% mobile phase A and 75% mobile phase B with a total run time of 1.5 minutes.

[3] = system: HCT116 MTAP+/+; experiment: Inhibition of cellular proliferation (Cell Titer Glo), HCT116 MTAP+/+; format: cell-based; settings: Homo sapiens, HCT-116, 96 h, 4 days, read-out: 4 Day Relative Growth Inhibition (MTAP +/+)
Procedure: (§1) Test compound impact on cancer cell growth was assessed by treating cancer cells with compound for 4 days and then measuring proliferation using an ATP-based cell proliferation readout (Cell Titer Glo, Promega Corporation).
(§2) In a typical assay an isogenic pair of HCT116 human colon carcinoma cell lines which vary only in MTAP deletion status (HCT116 MTAP+/+ and HCT116 MTAP−/−) were plated in 96-well dishes at appropriate cell density. Following 24 hours, cells were then treated with the candidate MAT2A inhibitor. Prior to addition to cells, the compound was first serially diluted in 100% DMSO, typically as a 3-fold serial dilution starting at 500× top dose with 10 dose points including DMSO only control. Compound was then transferred to a working stock plate in cell culture media by adding 5 μL of compound in DMSO to 495 μL of cell culture media. This working stock was then added to cells via a further 5-fold dilution, by adding 25 μL of working stock to 100 μL of cells in culture media. Following compound addition, cells were incubated at 37° C./5% CO2 for 4 days.
(§3) To measure inhibition of cellular proliferation, cells were allowed to equilibrate to room temperature for 30 minutes, and were then treated with 125 μL of Cell Titer Glo reagent. The plate was then covered with aluminum foil and shaken for 15 minutes to ensure complete mixing and full cell lysis. Luminescent signal was then measured using a plate-based luminometer Veritas version 1.9.2 using ATP standard curve to confirm assay reproducibility from run to run. This luminescence measure was converted to a proliferation index by subtracting from each data point the ATP luminescence signal measured from a bank (no cells) well and dividing by the ATP luminescence signal measured in 0.2% DMSO control well adjusted for signal in blank well. Compound activity was then represented as a percentage change in proliferation relative to a within-plate DMSO control against log 10 of compound concentration in molar (M) units.

[4] = system: HCT116 MTAP−/−; experiment: Inhibition of cellular proliferation (Cell Titer Glo), HCT116 MTAP-/-; format: cell-based; settings: Homo sapiens, HCT-116, 96 h, 4 days, read-out: 4 Day Relative Growth Inhibition (MTAP −/−)
Procedure: as §1, §2, §3

T1 sequence (P31153 whole entry): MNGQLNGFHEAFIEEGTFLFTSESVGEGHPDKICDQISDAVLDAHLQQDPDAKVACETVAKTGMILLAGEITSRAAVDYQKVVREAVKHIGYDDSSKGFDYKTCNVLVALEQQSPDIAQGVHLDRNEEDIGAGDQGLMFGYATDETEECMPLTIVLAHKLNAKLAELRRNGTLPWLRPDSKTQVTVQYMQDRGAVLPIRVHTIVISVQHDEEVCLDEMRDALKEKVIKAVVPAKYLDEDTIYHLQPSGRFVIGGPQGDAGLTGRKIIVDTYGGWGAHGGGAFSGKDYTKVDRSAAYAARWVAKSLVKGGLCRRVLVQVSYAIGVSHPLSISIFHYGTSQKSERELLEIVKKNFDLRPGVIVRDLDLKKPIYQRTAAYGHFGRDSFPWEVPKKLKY

| Compound | IC50 [1] [nM] | IC50 [2] [nM] | IC50 [3] [nM] | IC50 [4] [nM] |
| --- | --- | --- | --- | --- |
| Cn1cc2cc(-n3nc4ccc(OCC5CC5)nc4c(-c4ccc(Cl)cc4)c3=O)ccc2n1 [Example 101, 4-(4-chlorophenyl)-6-(cyclopropylmethoxy)-2-(2-methyl-2H-indazol-5-yl)pyrido[3,2-c]pyridazin-3(2H)-one] | < 100 | < 100 | ≥ 1000 | 100 to 1000 |
| CCNc1ccc2nn(-c3ccc4nn(C)cc4c3)c(=O)c(-c3ccc(Cl)cc3)c2n1 [Example 103, 4-(4-chlorophenyl)-6-(ethylamino)-2-(2-methyl-2H-indazol-5-yl)pyrido[3,2-c]pyridazin-3(2H)-one] | < 100 | < 100 | ≥ 1000 | < 100 |
| CCOc1ccc2nn(-c3ccc4nn(C)cc4c3)c(=O)c(-c3ccc(OC(F)(F)F)cc3)c2n1 [Example 104] | < 100 | 100 to 1000 | ≥ 1000 | 100 to 1000 |
| COc1ccc(-n2nc3ccc(OCC(F)F)nc3c(-c3ccc(OC(F)F)cc3)c2=O)cc1 [Example 105] | < 100 | 100 to 1000 | ≥ 1000 | 100 to 1000 |
| COc1ccc(-c2c(=O)n(-c3ccc4nn(C)cc4c3)nc3ccc(OCC(F)F)nc23)cc1 [Example 106] | < 100 | < 100 | 100 to 1000 | < 100 |
| Cn1cc2cc(-n3nc4ccc(OCC(F)F)nc4c(-c4ccc(C5CC5)nc4)c3=O)ccc2n1 [Example 107] | < 100 | < 100 | ≥ 1000 | < 100 |
| [2H]C([2H])([2H])Oc1ccc(-c2c(=O)n(-c3ccc4nn(C)cc4c3)nc3ccc(OCC(F)F)nc23)cc1 [Example 108] | < 100 | < 100 | ≥ 1000 | < 100 |
| Cn1cc2cc(-n3nc4ccc(OCC(F)F)nc4c(-c4ccc(OC(F)(F)F)cc4)c3=O)ccc2n1 [Example 109] | < 100 | < 100 | ≥ 1000 | < 100 |
| [2H]C([2H])([2H])Oc1ccc(-c2c(=O)n(-c3ccc4nn(C)cc4c3)nc3ccc(OCC)nc23)cc1 [Example 110] | < 100 | < 100 | 100 to 1000 | < 100 |
| CCCOc1ccc2nn(-c3ccc4nn(C)cc4c3)c(=O)c(-c3ccc(OC(F)F)cc3)c2n1 [Example 111] | < 100 | < 100 | ≥ 1000 | < 100 |
| CCOc1ccc2nn(-c3ccc(OC)cc3)c(=O)c(-c3ccc(C)nc3)c2n1 [Example 112] | < 100 | 100 to 1000 | ≥ 1000 | 100 to 1000 |
| Cn1cc2cc(-n3nc4ccc(OC5CC5)nc4c(-c4ccc(Cl)cc4)c3=O)ccc2n1 [Example 113] | < 100 | < 100 | ≥ 1000 | 100 to 1000 |
| Cn1cc2cc(-n3nc4ccc(OCC(F)F)nc4c(-c4ccc(C5CC5)cc4)c3=O)ccc2n1 [Example 114] | < 100 | < 100 | ≥ 1000 | < 100 |
| CCOc1ccc2nn(-c3ccc4nn(C)cc4c3)c(=O)c(-c3ccc(OC)cc3)c2n1 [Example 115] | < 100 | < 100 | 100 to 1000 | < 100 |
| Cn1cc2cc(-n3nc4ccc(OCC(F)(F)F)nc4c(-c4ccc(Cl)cc4)c3=O)ccc2n1 [Example 116] | < 100 | < 100 | ≥ 1000 | < 100 |
| CCOc1ccc2nn(-c3ccc(OC)cc3)c(=O)c(-c3ccc(Cl)cc3)c2n1 [Example 117] | < 100 | < 100 | ≥ 1000 | < 100 |
| CCOc1ccc2nn(-c3ccc4nn(C)cc4c3)c(=O)c(-c3ccc(Cl)cc3)c2n1 [Example 119] | < 100 | < 100 | ≥ 1000 | < 100 |
| CCOc1ccc2nn(-c3ccc4nn(C)cc4c3)c(=O)c(-c3ccc(OC(F)F)nc3)c2n1 [Example 120] | < 100 | < 100 | ≥ 1000 | < 100 |
| CCOc1ccc2nn(-c3ccc4nn(C)cc4c3)c(=O)c(-c3ccc(OC(F)(F)F)nc3)c2n1 [Example 121] | < 100 | < 100 | ≥ 1000 | < 100 |
| CCOc1ccc2nn(-c3ccc(OC)cc3)c(=O)c(-c3ccc(OC(F)F)nc3)c2n1 [Example 122] | < 100 | 100 to 1000 | ≥ 1000 | < 100 |
| Cn1cc2cc(-n3nc4ccc(OCC(F)(F)F)nc4c(-c4ccc(OC(F)F)cc4)c3=O)ccc2n1 [Example 123] | < 100 | < 100 | 100 to 1000 | < 100 |
| Cn1cc2cc(-n3nc4ccc(OCC(F)F)nc4c(-c4ccc(Cl)cc4)c3=O)ccc2n1 [Example 124] | < 100 | < 100 | 100 to 1000 | < 100 |
| Cn1cc2cc(-n3nc4ccc(OCC(F)F)nc4c(C#C[Si](C)(C)C)c3=O)ccc2n1 [Example 213, 6-(2,2-difluoroethoxy)-2-(2-methyl-2H-indazol-5-yl)-4-((trimethylsilyl)ethynyl)pyrido[3,2-c]pyridazin-3(2H)-one] | 100 to 1000 |  | ≥ 1000 | ≥ 1000 |

Reference: patent US12077534B2, “Aza-heterobicyclic inhibitors of MAT2A and methods of use for treating cancer” (Les Laboratoires Servier SAS, priority 2018, dated 2024)
